4 compounds from PubChem BioAssay AID1259411 (Chemical Carcinogenesis Research Information System (CCRIS), 2018) can be followed below.

The source made the active and inactive calls. The rule behind the calls is not given here.

The series has as its system rodent carcinogenicity bioassays, tumor incidence. Nature of the series: CCRIS carcinogenicity studies. From the text: The CCRIS database contains chemical records with carcinogenicity, mutagenicity, tumor promotion, and tumor inhibition test results. It was developed by the National Cancer Institute (NCI). Data are derived from studies cited in primary journals, current awareness tools, NCI reports, and other sources. Test results have been reviewed by experts in carcinogenesis and mutagenesis.
CCRIS provides historical information from the years 1985 - 2011. It is no longer updated.
This is an archive assay for CCRIS carcinogenicity studies.

On to `C=CC(=O)OCC`, for which the carcinogen call is, setting by setting: (Species: MOUSE, Strain/Sex: B6C3F1/FEMALE, Route: GAVAGE, Dose: 0, 100, 200 MG/KG IN CORN OIL FOR 103 WK, Dose: 0, 100, 200 MG/KG IN CORN OIL FOR 103 WK, Tumor Site: Type of Lesion: FORESTOMACH: SQUAMOUS CELL PAPILLOMA OR CARCINOMA) “active; positive”; (Species: MOUSE, Strain/Sex: B6C3F1/FEMALE, Route: INHALATION, Dose: 0, 5 PPM 6 HR/D 5 D/WK FOR 24 MO (STUDY DURATION: 24 MO)) “inactive; negative”; (Species: MOUSE, Strain/Sex: B6C3F1/FEMALE, Route: INHALATION, Dose: 0, 25, 75 PPM 6 HR/D 5 D/WK FOR 27 MO (STUDY DURATION: 27 MO), Dose: 0, 25, 75 PPM 6 HR/D 5 D/WK FOR 27 MO (STUDY DURATION: 27 MO)) “inactive; negative”; (Species: MOUSE, Strain/Sex: B6C3F1/FEMALE, Route: INHALATION, Dose: 0, 225 PPM 6 HR/D 5 D/WK FOR 6 MO (STUDY DURATION: 27 MO)) “inactive; negative”; (Species: MOUSE, Strain/Sex: B6C3F1/MALE, Route: GAVAGE, Dose: 0, 100, 200 MG/KG IN CORN OIL FOR 103 WK, Dose: 0, 100, 200 MG/KG IN CORN OIL FOR 103 WK, Tumor Site: Type of Lesion: FORESTOMACH: SQUAMOUS CELL PAPILLOMA, SQUAMOUS CELL CARCINOMA) “active; positive”; (Species: MOUSE, Strain/Sex: B6C3F1/MALE, Route: INHALATION, Dose: 0, 5 PPM 6 HR/D 5 D/WK FOR 24 MO (STUDY DURATION: 24 MO)) “inactive; negative”. The carcinogen call is “inactive; negative” (Species: MOUSE, Strain/Sex: B6C3F1/MALE, Route: INHALATION, Dose: 0, 25, 75 PPM 6 HR/D 5 D/WK FOR 27 MO (STUDY DURATION: 27 MO), Dose: 0, 25, 75 PPM 6 HR/D 5 D/WK FOR 27 MO (STUDY DURATION: 27 MO)); “inactive; negative” (Species: MOUSE, Strain/Sex: B6C3F1/MALE, Route: INHALATION, Dose: 0, 225 PPM 6 HR/D 5 D/WK FOR 6 MO (STUDY DURATION: 27 MO)); “inactive; negative” (Species: MOUSE, Strain/Sex: C3H/MALE, Route: DERMAL, Dose: 0, 23 MG IN 25 µL ACETONE 3/WK FOR LIFESPAN (STUDY DURATION: LIFESPAN)); “inactive; negative” (Species: MOUSE, Strain/Sex: TGAC/FEMALE, Route: DERMAL, Dose: 0, 60, 300, 600 UMOL IN 200 µL ACETONE 3/WK FOR 20 WK (STUDY DURATION: 20 WK), Dose: 0, 60, 300, 600 UMOL IN 200 µL ACETONE 3/WK FOR 20 WK (STUDY DURATION: 20 WK)); “active; positive” (Species: RAT, Strain/Sex: F344/FEMALE, Route: GAVAGE, Dose: 0, 100, 200 MG/KG IN CORN OIL FOR 103 WK, Dose: 0, 100, 200 MG/KG IN CORN OIL FOR 103 WK, Tumor Site: Type of Lesion: FORESTOMACH: SQUAMOUS CELL PAPILLOMA, SQUAMOUS CELL PAPILLOMA OR CARCINOMA); “inactive; negative” (Species: RAT, Strain/Sex: F344/FEMALE, Route: INHALATION, Dose: 0, 5 PPM 6 HR/D 5 D/WK FOR 24 MO (STUDY DURATION: 24 MO)). For the same compound, the carcinogen call runs as follows: (Species: RAT, Strain/Sex: F344/FEMALE, Route: INHALATION, Dose: 0, 25, 75 PPM 6 HR/D 5 D/WK FOR 27 MO (STUDY DURATION: 27 MO), Dose: 0, 25, 75 PPM 6 HR/D 5 D/WK FOR 27 MO (STUDY DURATION: 27 MO)) “inactive; negative”; (Species: RAT, Strain/Sex: F344/FEMALE, Route: INHALATION, Dose: 0, 225 PPM 6 HR/D 5 D/WK FOR 6 MO (STUDY DURATION: 27 MO)) “inactive; negative”; (Species: RAT, Strain/Sex: F344/MALE, Route: GAVAGE, Dose: 0, 100, 200 MG/KG IN CORN OIL FOR 103 WK, Dose: 0, 100, 200 MG/KG IN CORN OIL FOR 103 WK, Tumor Site: Type of Lesion: FORESTOMACH: SQUAMOUS CELL PAPILLOMA, SQUAMOUS CELL CARCINOMA) “active; positive”; (Species: RAT, Strain/Sex: F344/MALE, Route: INHALATION, Dose: 0, 5 PPM 6 HR/D 5 D/WK FOR 24 MO (STUDY DURATION: 24 MO)) “inactive; negative”; (Species: RAT, Strain/Sex: F344/MALE, Route: INHALATION, Dose: 0, 25, 75 PPM 6 HR/D 5 D/WK FOR 27 MO (STUDY DURATION: 27 MO), Dose: 0, 25, 75 PPM 6 HR/D 5 D/WK FOR 27 MO (STUDY DURATION: 27 MO)) “inactive; negative”; (Species: RAT, Strain/Sex: F344/MALE, Route: INHALATION, Dose: 0, 225 PPM 6 HR/D 5 D/WK FOR 6 MO (STUDY DURATION: 27 MO)) “inactive; negative”.

On to `CN(C)C(=S)SSC(=S)N(C)C`, for which the carcinogen call is, setting by setting: (Species: DOG, Strain/Sex: BEAGLE/FEMALE, Route: ORAL, Dose: 0, 0.4, 4, 40 MG/KG/D ADMINISTERED IN GELATIN CAPSULES 7 D/WK FOR 104 WK (STUDY DURATION: 104 WK), Dose: 0, 0.4, 4, 40 MG/KG/D ADMINISTERED IN GELATIN CAPSULES 7 D/WK FOR 104 WK (STUDY DURATION: 104 WK)) “inactive; negative”; (Species: DOG, Strain/Sex: BEAGLE/MALE, Route: ORAL, Dose: 0, 0.4, 4, 40 MG/KG/D ADMINISTERED IN GELATIN CAPSULES 7 D/WK FOR 104 WK (STUDY DURATION: 104 WK), Dose: 0, 0.4, 4, 40 MG/KG/D ADMINISTERED IN GELATIN CAPSULES 7 D/WK FOR 104 WK (STUDY DURATION: 104 WK)) “inactive; negative”; (Species: MOUSE, Strain/Sex: SWISS/FEMALE, Route: DERMAL, Dose: 0, 100 MG/KG BW IN 100 µL DMSO 3/WK FOR 52 WK (STUDY DURATION: 52 WK)) “inactive; negative”; (Species: MOUSE, Strain/Sex: SWISS/MALE, Route: 0, 100 MG/KG BW IN 100 µL DMSO 3/WK FOR 52 WK (STUDY DURATION: 52 WK)) “inactive; negative”; (Species: RAT, Strain/Sex: F344/FEMALE, Route: ORAL, Dose: 0, 0.05, 0.1% IN DIET FOR 104 WK (STUDY DURATION: 112 WK), Dose: 0, 0.05, 0.1% IN DIET FOR 104 WK (STUDY DURATION: 112 WK)) “inactive; negative”; (Species: RAT, Strain/Sex: F344/MALE, Route: ORAL, Dose: 0, 0.05, 0.1% IN DIET FOR 104 WK (STUDY DURATION: 112 WK), Dose: 0, 0.05, 0.1% IN DIET FOR 104 WK (STUDY DURATION: 112 WK)) “inactive; negative”. Besides, the carcinogen call was “inactive; negative” (Species: RAT, Strain/Sex: WISTAR/FEMALE, Route: ORAL, Dose: 0, 3, 30, 300 PPM IN DIET FOR 104 WK (STUDY DURATION: 104 WK), Dose: 0, 3, 30, 300 PPM IN DIET FOR 104 WK (STUDY DURATION: 104 WK)) and “inactive; negative” (Species: RAT, Strain/Sex: WISTAR/MALE, Route: ORAL, Dose: 0, 3, 30, 300 PPM IN DIET FOR 104 WK (STUDY DURATION: 104 WK), Dose: 0, 3, 30, 300 PPM IN DIET FOR 104 WK (STUDY DURATION: 104 WK)).

As to `O=C1OC2(c3ccc(O)cc3Oc3cc(O)ccc32)c2ccccc21`, the carcinogen call was “inactive; negative” (Species: MOUSE, Strain/Sex: SWISS-WEBSTER/FEMALE, Route: DERMAL, Dose: 0, 1% IN 0.1 ML 0.1% SODIUM LAURYL SULFATE 1/WK FOR 18 MO (STUDY DURATION: 18 MO)) and “inactive; negative” (Species: MOUSE, Strain/Sex: SWISS-WEBSTER/MALE, Route: DERMAL, Dose: 0, 1% IN 0.1 ML 0.1% SODIUM LAURYL SULFATE 1/WK FOR 18 MO (STUDY DURATION: 18 MO)).

`c1ccc2c(c1)ccc1cc3ccc4ccccc4c3cc12`: where the note is “Species: MOUSE, Strain/Sex: SWISS/FEMALE, Route: DERMAL, Dose: 0, 78 UG IN ACETONE (0.4%) 2/WK FOR 60 WK FOR A TOTAL DOSE OF 0, 9.4 MG (STUDY DURATION: 80 WK), Dose: 0, 78 UG IN ACETONE (0.4%) 2/WK FOR 60 WK FOR A TOTAL DOSE OF 0, 9.4 MG (STUDY DURATION: 80 WK), Tumor Site: Type of Lesion: SKIN: CARCINOMA”, the carcinogen call is “active; positive”.
